What was measured:
[1] = tested on: PBMCs of pancreatic adenocarcinoma patients; settings: cited from earlier work
[2] = tested on: TAPs (transporters associated with antigen processing); test: TAP assay: competition with a fluorescent reference peptide for TAP-dependent translocation into microsomes; format: biochemical; settings: competition with fluorescent tracer peptide; microsomes from LCL721 cells; 10 mM ATP mixture; 20 min at 37°C; fluorescence read-out; signal without ATP subtracted; result in words (EC50 values only in Figure 6B)
Experimental: The transport efficiency of target peptides (Supplementary Table 2) into the ER lumen mediated by TAPs was carried out as previously described ([29]) although some modifications were introduced. These include the use of a fluorescent peptide tracer and the use of microsomes rather than Streptolysin O permeabilized cells. Briefly, peptides were dissolved in DMSO and different concentrations were distributed in a final volume of 10 μl DMSO. At the same time, a mixture of 10 mM ATP, 100 mM Tris-HCl pH7.5 and 5 mM MgCl2 and fluorescent tracer peptide was prepared. 60 μl of this mixture was added to the 10 μl competing peptide mixture to a final volume of 70 μl. This was prewarmed to 37°C and 30 μl of pre-warmed microsomes were added. Microsomes were derived from LCL721 cells, as previously described ([29]).
The mixture was incubated for 20 min at 37°C followed by cell lysis with lysis mixture (0.5% TX100, 5 mM MgCl2 in 100 mM Tris-HCl pH7.5) at 4°C. After at least 30 min incubation at 4°C, DNA was pelleted and the supernatant transferred to a new vial including ConA-beads. After at least 30 min incubation on ice, cells were washed four times with lysis mixture and the last time with 100 mM Tris-HCl pH7.5 before transfer to 96 wells plates (Corning) followed by fluorescence measurements in a plate reader. To detect background signals, a sample without competing peptide and ATP was included and fully performed as described above. This signal was subtracted from the detected signal.
To quantify the efficiency of peptide transport into the ER lumen by TAP, we measured the competition between the target peptides and a fluorescent reference peptide for TAP-dependent translocation into free microsomes.

[3] = biological target: HLA-A*02:01 complex (Homo sapiens, UniProt P04439, D140Y/D185E/D98H/E176V/E277Q/G131W/G231S/I119V/I121R/I166T/I218V/L300P/L318F/N151K/N90K/P208A/P217A/Q86G/Q94H/R138H/R169H/T345S); test: HLA-A*02:01-peptide binding affinity measured with purified HLA-I molecules; settings: cell-free system, values only in Figure 6C
Experimental: The binding affinity between theoretical spliced and non-spliced peptides and HLA-A^*02:01 was predicted using the NetMHCPan 3.0 algorithm ([30]). […] The binding affinity between the synthetic peptides and HLA-A^*02:01 complexes was measured using purified HLA-I molecules, as described elsewhere ([10]).
Once a peptide arrives in the ER lumen, its binding affinity to the specific HLA-I molecule determines whether it will ultimately be presented. Therefore, we measured the binding affinity of the same six peptides previously tested in the TAP assay and the HLA-A^*02:01 complex in a cell-free system utilizing purified HLA-I molecules.

[4] = tested on: Transduced human CD8+ T cells; settings: TCRs isolated from humanized ABabDII mice, transduced into human PBMCs; cited from earlier work
Text: Our pipeline identifies epitope candidates which shall further be validated by isolating specific CTL clones and their TCRs and using them to confirm that the epitope candidates are produced in cellulo and eventually in vivo. There are several strategies to this end. For example, the KRAS5−6/8−14 spliced epitope candidate here identified has been validated in collaboration with Blankenstein et al. ([56]). Specific TCRs have been isolated from humanized ABabDII mice ([57]), cloned into expressing vectors and transduced into human PBMCs.

Compound | Recognition by PBMCs of pancreatic adenocarcinoma patients [1] | Transport efficiency into the ER lumen mediated by TAPs [2] | Binding to HLA-A*02:01 complex (result in words) [3] | Recognition of the epitope by TCR-transduced human CD8+ T cells [4]
CC(C)C[C@H](NC(=O)[C@@H](N)CCCCN)C(=O)N[C@H](C(=O)N[C@H](C(=O)N[C@H](C(=O)NCC(=O)N[C@@H](C)C(=O)N[C@H](C(=O)NCC(=O)N[C@H](C(=O)O)C(C)C)C(C)C)C(C)C)C(C)C)C(C)C [KRAS5−14 G12V] | recognized by PBMCs |  |  | 
KLVVVAVGV [peptide #2] |  | not competing with the reference peptide |  | 
YLVVVGAVGV [peptide #1] |  | transported by TAP as efficiently as the non-spliced epitope candidate |  | 
[KL][VVGAVGV] [KRAS5−6/8−14 G12V] |  | efficiently transported by TAPs | efficiently bind | selectively recognized
